Reference: patent publication US20230270653A1, “USE OF TREHALOSE FOR INHIBITING AILMENT INDUCING MICROORGANISMS” (Conopco, Inc., d/b/a UNILEVER, priority 2020, published 2023)

Experiments:
M. restricta = experiment: Overlay assay, Log10 reduction (Kill) of M. restricta; format: cell-based, Malassezia restricta
Excerpt: (§1) Staphylococcus hominis (S. hominis, ATCC 27844), Cutibacterium acnes (C. acnes, ATCC6919), Staphylococcus aureus (S. aureus, ATCC 6538), and Malassezia restricta (M. restricta, ATCC 7877) were inoculated from freezer stock onto agar plates according to culture conditions as shown in table 1. Then, one loop of microbes from agar plate was inoculated into a liquid culture system according to the culture condition as shown in table 1. M. restricta were reinoculated on MLNA plate twice before use. Cell density of bacteria (S. hominis, C. acnes and S. aureus) was adjusted to concentration at 10^8 cfu/mL for further use based on absorption at 600 nm. Cell density of M. restricta was adjusted to concentration at 10^8 cfu/mL for further use based on absorption at 610 nm.
(§2) On Day 0, 15 mL of TSA containing (1) 2% Trehalose and 10^6 cfu/ml S. hominis, (2) 10^6 cfu/ml S. hominis alone (without trehalose), and (3) 2% trehalose alone (without S. hominis) was solidified in a […] petri dish and cultured at 37° C. for four days. TSA agar without S. hominis nor trehalose was prepared in parallel as control. […]
(§3) At the end, Log10 reduction (Kill) were determined for the targeted microorganisms, M. restricta and S. aureus on plate (1), (2), and (3) as compared to the respective M. restricta or S. aureus growth on control plate

S. aureus = experiment: Overlay assay, Log10 reduction (Kill) of S. aureus; format: cell-based, Staphylococcus aureus
Excerpt: as §1, §2, §3

Structure (SMILES): OC[C@H]1O[C@H](O[C@H]2O[C@H](CO)[C@@H](O)[C@H](O)[C@H]2O)[C@H](O)[C@@H](O)[C@@H]1O [A, trehalose]
- Log10 reduction (Kill) of M. restricta (M. restricta; TSA plate cultured at 37° C. for four days, MLNA overlay, serially diluted M. restricta (ATCC 7877) dotted on, compared to growth on control plate): 0

Structure (SMILES): OC[C@H]1O[C@H](O[C@H]2O[C@H](CO)[C@@H](O)[C@H](O)[C@H]2O)[C@H](O)[C@@H](O)[C@@H]1O [Trehalose]
- effectiveness against Staphylococcus aureus (S. aureus; in the presence of S. hominis, conclusion from Table 4): effective
- effectiveness against Malassezia restricta (M. restricta; in the presence of S. hominis, conclusion from Table 3): effective

Structure (SMILES): OC[C@H]1O[C@H](O[C@H]2O[C@H](CO)[C@@H](O)[C@H](O)[C@H]2O)[C@H](O)[C@@H](O)[C@@H]1O [C, trehalose]
- Log10 reduction (Kill) of S. aureus (S. aureus; TSA plate cultured at 37° C. for four days, TSA overlay, serially diluted S. aureus (ATCC 6538) dotted on, compared to growth on control plate): 1
